In one assay the test system is h20S. The settings on record: cited from earlier work.
Assay [1] concerns T1, yeast α3ΔN mutant of 20S proteasome.
T1 construct: Yeast CP 20S wild-type and the mutant form, α3ΔN, were purified as previously reported; made in house; host or cells: yeast
Description: 20S proteasome chymotryptic-like activity assay (Suc-LLVY-AMC), steady-state kinetics vs Tris-T4 concentration. It counts as biochemical. From the text:
(§1) Then, we have extended the investigation on the functional modulation of the chymotryptic-like activity by Tris-T4 porphyrin also to wt y20S proteasome and to its mutant α3ΔN, which is characterized by a significant enhancement of the enzymatic activity, ascribed to disruption of the gate closing mechanism.
(§2) In addition, for the sake of clarity, in Scheme 1 some of these parameters are reported as interaction ratios, namely α = KAU/KAL, β = KBU/KBL, γ = KBU/KAU, and δ = KBL/KAL. Finally, σA and σB refer to the eventual effect of Tris-T4 binding on the catalytic rate-limiting step kcat of either state A and/or state B (see Scheme 1). […] (1) kobscat=kcatA⋅(1+KAL⋅[Tris_T4])^n+LL⋅kcatB⋅(1+KBL⋅[Tris_T4])^n/(1+KAL⋅[Tris_T4])^n+LL⋅(1+KBL⋅[Tris_T4])^n (2) Kobsm=K0m⋅(1+KAU⋅[Tris_T4])^n+LU⋅(1+KBI⋅[Tris_T4])^m⋅(1+KBU⋅[Tris_T4])^n/(1+KAL⋅[Tris_T4])^n+LL⋅(1+KBL⋅[Tris_T4])^n (3) kobscat/Kobsm=kcatA/KmA⋅(1+KAU⋅[Tris_T4])^n+LU⋅kcatB/KmB⋅(1+KBI⋅[Tris_T4])^m⋅(1+KBU⋅[Tris_T4])^n/(1+KAU⋅[Tris_T4])^n+LU⋅(1+KBI⋅[Tris_T4])^m⋅(1+KBU⋅[Tris_T4])^n
(§3) 20S proteasome activity assays were performed in vitro in the assay buffer (i.e., 50 mM TrisHCl, pH 8.0) by mixing 20S proteasome (2 nM) with increasing concentrations (0.1–10 µM) of Tris-T4 incubating for 30 min at 37 °C. Then, varying concentrations (between 5 µM and 100 µM) of fluorogenic peptide were added in a 384 multiwell black plate. A minimum of three replicates were performed for each data point. […] Data relative to CP activities at different substrate concentrations have been analyzed by a double reciprocal Lineweaver–Burk plot, according to the following equation:(4) [E0]/v=Km/±kcatx 1/[S]+1/kcat where (E0) is the enzyme concentration, ν is the observed velocity (expressed as moles of substrate cleaved per time interval unit), (S) is the substrate concentration, Km is the Michaelis–Menten equilibrium constant, referring to the affinity for substrate, and kcat is the velocity of the rate-limiting step. All curve fitting and statistical analysis were carried out using the non-linear fitting tool (NLFit) and MatLab (The Math works Inc., Natick, MA, USA). The parametric data fitting was based on nonlinear regression and the method of least squares. Model discrimination and choice was based on the goodness of fit. The goodness of fit was evaluated by visual examination of the fitted curves, 95% confidence bounds for the fitted coefficients and statistical analysis for determining the square of the multiple correlation coefficient (R^2).The Gibbs free energy difference (ΔG^0 = −RT lnK) was calculated using the values of the equilibrium constants reported in Table 1 and corresponds to −ΔG^0 of the considered conformational transition equilibrium as depicted in Scheme 1.

For the next assay, the system named is T2, h20S proteasome.
T2 construct: purchased Boston Biochem
Description: STD and WaterLOGSY NMR interaction study. Particulars: Tris-T4 175 μM, 20S 860 nM; 50 mM Hepes, 100 mM NaCl, 1mM DTT. It counts as binding, human. As for the experimental part:
For NMR interaction studies, Saturation Transfer Difference (STD) and WaterLogsy (WL) experiments were employed to derive the ligand binding epitope.
As a starting point, the Tris-T4 structure has been analyzed by ^1H NMR spectroscopy in the buffer (50 mM Hepes, 100 mM NaCl and 1mM DTT). The ^1H chemical shift assignments of Tris-T4 are reported in Supplementary Figure S1. Both STD- and WL-NMR spectra of Tris-T4 were acquired in a 200-fold excess over the h20S proteasome.
Then, to identify the ligand moiety more closely interacting with the protein, we evaluated and compared the saturation effects of the individual Tris-T4 proton resonances (ISTD = I0 − Isat). The signal showing the largest ISTD/I0 value, the para phenyl proton, was normalized to 100% (Figure 7). The relative degree of saturation of the individual protons, normalized to that of the para phenyl proton, was then used to compare the STD effect.

For another assay, the system named is T3, wt y20S proteasome.
T3 construct: Yeast CP 20S wild-type and the mutant form, α3ΔN, were purified as previously reported; made in house; host or cells: yeast
Description: 20S proteasome chymotryptic-like activity assay (Suc-LLVY-AMC), steady-state kinetics vs Tris-T4 concentration. It counts as biochemical, yeast.
From the text: as §1, §2, §3

For assay [2], the system named is purified rabbit 20S proteasome. On the set-up: method as in PMID 22642538. The settings on record: 100 µM fluorogenic substrate; apparent inhibition; read-out: IC50, chymotryptic-like activity; cited from earlier work.
A further assay relates to T4, human 20S proteasome.
T4 construct: purchased Boston Biochem
Description: 20S proteasome chymotryptic-like activity assay (Suc-LLVY-AMC), steady-state kinetics vs Tris-T4 concentration. It counts as biochemical.
From the text: In order to better characterize the effect of Tris-T4 on the functional properties of the 20S proteasome, we have carried out an investigation on the steady-state chymotryptic-like activity of h20S as a function of Tris-T4 concentration, employing different substrate concentrations.
as §2, §3

The mark [3] stands for this setting: Michaelis-Menten constant in state A.
The mark [4] stands for this setting: state A, substrate-bound ES complex.
Setting [5] is: state B, substrate-bound ES complex.
Setting [6] is: Michaelis-Menten constant in state B (stabilized by Tris-T4).

T1 sequence (P23639 whole entry, stated change not applied): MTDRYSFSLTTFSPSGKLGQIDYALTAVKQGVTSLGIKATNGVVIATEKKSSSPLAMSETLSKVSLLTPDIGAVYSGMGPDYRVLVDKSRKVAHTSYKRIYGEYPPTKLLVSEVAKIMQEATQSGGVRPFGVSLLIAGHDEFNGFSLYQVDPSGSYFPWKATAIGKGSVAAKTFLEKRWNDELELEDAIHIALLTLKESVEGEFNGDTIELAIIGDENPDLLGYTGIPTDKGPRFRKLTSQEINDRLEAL
T1 sequence (P32379 whole entry, stated change not applied, further chain): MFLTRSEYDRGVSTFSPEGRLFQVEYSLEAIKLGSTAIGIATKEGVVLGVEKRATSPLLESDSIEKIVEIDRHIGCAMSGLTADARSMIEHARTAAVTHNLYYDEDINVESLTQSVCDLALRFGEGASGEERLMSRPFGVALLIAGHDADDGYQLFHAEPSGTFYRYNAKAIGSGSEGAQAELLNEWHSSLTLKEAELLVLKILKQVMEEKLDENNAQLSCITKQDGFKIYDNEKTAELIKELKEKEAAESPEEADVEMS
T1 sequence (P40303 whole entry, stated change not applied, further chain): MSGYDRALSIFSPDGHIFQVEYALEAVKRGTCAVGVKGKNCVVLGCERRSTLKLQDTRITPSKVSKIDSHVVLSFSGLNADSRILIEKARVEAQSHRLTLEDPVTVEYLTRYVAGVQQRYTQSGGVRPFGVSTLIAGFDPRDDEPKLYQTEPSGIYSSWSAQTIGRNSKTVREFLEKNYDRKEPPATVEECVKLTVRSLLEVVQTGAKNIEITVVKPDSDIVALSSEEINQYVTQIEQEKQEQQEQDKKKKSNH
T1 sequence (P40302 whole entry, stated change not applied, further chain): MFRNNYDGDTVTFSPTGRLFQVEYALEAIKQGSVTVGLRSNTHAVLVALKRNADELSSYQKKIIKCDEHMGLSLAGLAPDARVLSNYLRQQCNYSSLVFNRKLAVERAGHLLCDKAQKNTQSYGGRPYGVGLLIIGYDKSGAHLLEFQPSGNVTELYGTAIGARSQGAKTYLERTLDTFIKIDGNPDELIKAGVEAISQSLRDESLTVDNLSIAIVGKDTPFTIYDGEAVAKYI
T1 sequence (P21243 whole entry, stated change not applied, further chain): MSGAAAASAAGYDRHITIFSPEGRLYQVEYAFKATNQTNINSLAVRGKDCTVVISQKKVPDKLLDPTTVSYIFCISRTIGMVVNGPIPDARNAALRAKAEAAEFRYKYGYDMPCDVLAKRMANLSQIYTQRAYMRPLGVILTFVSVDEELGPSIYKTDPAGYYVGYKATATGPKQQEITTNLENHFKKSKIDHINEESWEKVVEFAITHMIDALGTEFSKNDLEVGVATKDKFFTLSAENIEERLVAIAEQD

With `C[n+]1ccc(-c2c3nc(c(-c4cc[n+](C)cc4)c4ccc([nH]4)c(-c4cc[n+](C)cc4)c4nc(c(-c5cc[n+](C)cc5)c5ccc2[nH]5)C=C4)C=C3)cc1` [H2T4, meso-tetrakis (4-N-methylpyridyl)-porphyrin], the “mode of action on h20S” value in the assay on h20S is listed as “competitive inhibitor”.
On to `C[n+]1ccc(-c2c3nc(c(-c4cc[n+](C)cc4)c4ccc([nH]4)c(-c4cc[n+](C)cc4)c4nc(c(-c5ccccc5)c5ccc2[nH]5)C=C4)C=C3)cc1` [Tris-T4, 5-(phenyl)-10,15,20-(tri N-methyl-4-pyridyl) porphyrin], for which the “m, number of competitive inhibitory sites” value in assay [1] (Eq 1-3) is 1; in the assay on wt y20S proteasome (Eq 1-3), 1; in the assay on human 20S proteasome (Eq 1-3), 0. In addition, the “n, number of concerted allosteric binding sites for Tris-T4” value stood at 2 in assay [1] (Eq 1-3); 2 with wt y20S proteasome (Eq 1-3); 3 in the assay on human 20S proteasome (minimum value, Eq 1-3). In addition, the values for the KmA (in assay [1] (setting [3]); in the assay with wt y20S proteasome (setting [3]); with human 20S proteasome (setting [3])) were 4.1(± 0.6) × 10^−3 M, 1.17(± 0.22) × 10^−4 M and 1.95(± 0.37) × 10^−3 M, respectively. For the same molecule, the KmB in assay [1] (Michaelis-Menten constant in state B) was 1.07(± 0.27) × 10^−2 M; with wt y20S proteasome (setting [6]), 9.04(± 1.82) × 10^−6 M; in the assay with human 20S proteasome (setting [6]), 1.5(± 0.3) × 10^−4 M. The “effect on chymotryptic-like activity” value is recorded as “only the competitive inhibitory effect is observed” in assay [1] (Tris-T4 0-5 μM, no activation) and “activator” with human 20S proteasome ((Substrate) < 25 µM, Tris-T4 0-10 μM). In addition, the “LU, equilibrium constant between A and B” value is given as 3.9(± 0.6) × 10^−2 in assay [1] (absence of the substrate); 6.0(± 1.0) × 10^−4 (2) in the assay with wt y20S proteasome (absence of the substrate); 3.0(± 0.5) × 10^−6 (3) with human 20S proteasome (absence of the substrate, floating parameter of the two-state model). The “KAU, affinity constant for Tris-T4” value in assay [1] (state A, absence of substrate) is 3.0(± 0.5) × 10^5 M^−1; with wt y20S proteasome (state A, absence of substrate), 3.0(± 0.5) × 10^5 M^−1; in the assay on human 20S proteasome (state A, absence of substrate), 2.0(± 0.3) × 10^4 M^−1. Besides, the results for the “KAL, affinity constant for Tris-T4” value (in assay [1] (setting [4]); in the assay on human 20S proteasome (setting [4])) were 1.2(± 0.4) × 10^5 M^−1 and 1.2(± 0.3) × 10^4 M^−1, respectively. Further, the kcatA was 49.5 ± 5.6 s⁻¹ in assay [1] (state A, same kcat imposed for both states); 0.95 ± 0.15 s⁻¹ with wt y20S proteasome (rate-limiting step in state A, fit of Eq 1-3); 11.5 ± 1.3 s⁻¹ in the assay on human 20S proteasome (rate-limiting step in state A, fit of Eq 1-3, substrate ≤ 25 μM, pH 8.0, 37 °C). Moreover, the “KBI, affinity constant for Tris-T4 to the inhibitory competitive site” value (in assay [1] (state B); in the assay with wt y20S proteasome (state B)) was 2.5(± 0.4) × 10^6 M^−1 throughout. The “KBU, affinity constant for Tris-T4” value is 9.0(± 1.8) × 10^7 M^−1 in assay [1] (state B, absence of substrate); 9.0(± 1.8) × 10^7 M^−1 with wt y20S proteasome (state B, absence of substrate); 8.2(± 1.2) × 10^7 M^−1 in the assay on human 20S proteasome (state B, absence of substrate). In addition, the “KBL, affinity constant for Tris-T4” value is 1.3(± 0.3) × 10^8 M^−1 in assay [1] (setting [5]), 1.3(± 0.3) × 10^8 M^−1 in the assay on wt y20S proteasome (setting [5]) and 1.35(± 0.28) × 10^8 M^−1 with human 20S proteasome (setting [5]). Besides, the kcatB in assay [1] (state B, same kcat imposed for both states) was 49.5 ± 5.6 s⁻¹; in the assay on wt y20S proteasome (rate-limiting step in state B (stabilized by Tris-T4)) it was 0.17 ± 0.03 s⁻¹; in the assay on human 20S proteasome (rate-limiting step in state B (stabilized by Tris-T4), fit of Eq 1-3), 0.32 ± 0.05 s⁻¹. The “LL, equilibrium constant between A and B” value is 1.5(± 1.0) × 10^−2 in assay [1] (substrate-bound ES complex), 7.8(± 1.5) × 10^−3 (2) in the assay on wt y20S proteasome (substrate-bound ES complex) and 3.9(± 0.6) × 10^−5 (3) with human 20S proteasome (substrate-bound ES complex). In addition, in the assay on h20S proteasome, the “STD and WL-NMR spectra, interaction” value was “positive signals”. For the same molecule, the “effect on chymotryptic-like activity at higher Tris-T4 concentrations” value in the assay with wt y20S proteasome (above 1 μM Tris-T4, overwhelms the activation) is recorded as “competitive inhibitory effect”. In addition, the “Tris-T4 concentration at which activation is essentially completed” value with wt y20S proteasome (chymotryptic-like activity) amounted to 1 µM; in the assay on human 20S proteasome (chymotryptic-like activity) it was 3 µM. Besides, in assay [2], the half-maximal inhibitory concentration (IC50) (as a rule, the concentration that gives 50% inhibition) is 920 ± 60 nM. In the assay on human 20S proteasome (substrate-bound state), the “free energy contribution of each Tris-T4 binding step (RTln(KBL/KAL))” value worked out at 5.71 kcal/mol. For the same molecule, in the assay with human 20S proteasome (substrate-free conformation), the “free energy contribution of each Tris-T4 binding step (RTln(KBU/KAU))” value worked out at 5.11 kcal/mol. Further, the “free energy for the A → B transition in favor of the B functional state (RTlnLUγ^3)” value in the assay with human 20S proteasome (substrate-free porphyrin triple-bound enzyme) is 7.5 kcal/mol.
As for `C[n+]1ccc(-c2ccc(-c3c4nc(c(-c5ccc(-c6cc[n+](C)cc6)cc5)c5ccc([nH]5)c(-c5ccc(-c6cc[n+](C)cc6)cc5)c5nc(c(-c6ccc(-c7cc[n+](C)cc7)cc6)c6ccc3[nH]6)C=C5)C=C4)cc2)cc1` [pTMPyPP4, meso-tetrakis (4-N-methylphenyl-pyridyl)-porphyrin], the “mode of action on h20S” value in the assay with h20S was “allosteric inhibitor”.
